Values belong to the compound of their own block, whether it stands above or below them.
What was measured:
[1] = In vitro release from stents coated with 1:1 mixture of TA and 5FU without chemical linkage; type: physicochemical; details: mixture coating, 0.1M phosphate buffer pH 7.4, 37° C.
Protocol: Stents were coated with a mixture of TA and 5FU in a mole-ratio of 1 to 1 without chemical linkage. The release rate was determined in vitro by placing the coated stents in 0.1M phosphate buffer (pH 7.4) at 37° C. Samples of the buffer solution were periodically removed for analysis by HPLC, and the buffer was replaced to avoid any saturation effects.
Because of the hydrophilic nature of 5FU, this compound was released from the mixture coating much faster than from the codrug coating. Within 4 weeks, more than 95% of total 5FU was released. TA release from the drug mixture coating was much slower, with about 20% TA released over the first 6 weeks.

[2] = Release test from PVA-coated glass plates into phosphate buffer (HPLC); type: physicochemical; details: 0.1 M phosphate buffer pH 7.4, 37° C., intact plus constituents
[3] = Release test from silicone-coated glass plates into phosphate buffer (HPLC); details: silicone coating, up to day 6; detected plus hydrolyzed

total 5FU released ([1]; within 4 weeks): more than 95%
Structure (SMILES): O=c1[nH]cc(F)c(=O)[nH]1 [5FU, 5-fluorouracil]

TA released ([1]; over the first 6 weeks): about 20%
Structure (SMILES): CC1(C)O[C@@H]2C[C@H]3[C@@H]4CCC5=CC(=O)C=C[C@]5(C)[C@@]4(F)[C@@H](O)C[C@]3(C)[C@]2(C(=O)CO)O1 [TA, triamcinolone acetonide]

release rate (slope of total cumulative release curve) [2]: 10 µg/day | total TC-112 released [3]: 122.4 mg
Structure (SMILES): COc1ccc2cc(C(C)C(=O)OCn3cc(F)c(=O)[nH]c3=O)ccc2c1 (stereo not shown) [TC-112]
